This is an account of results in ChEMBL document CHEMBL4196108, “5-Aroylindoles Act as Selective Histone Deacetylase 6 Inhibitors Ameliorating Alzheimer's Disease Phenotypes” (J Med Chem, 2018).

Test [1] addresses T1, Polyamine deacetylase HDAC10 (Homo sapiens, UniProt Q969S8).
T1 sequence (Q969S8 whole entry): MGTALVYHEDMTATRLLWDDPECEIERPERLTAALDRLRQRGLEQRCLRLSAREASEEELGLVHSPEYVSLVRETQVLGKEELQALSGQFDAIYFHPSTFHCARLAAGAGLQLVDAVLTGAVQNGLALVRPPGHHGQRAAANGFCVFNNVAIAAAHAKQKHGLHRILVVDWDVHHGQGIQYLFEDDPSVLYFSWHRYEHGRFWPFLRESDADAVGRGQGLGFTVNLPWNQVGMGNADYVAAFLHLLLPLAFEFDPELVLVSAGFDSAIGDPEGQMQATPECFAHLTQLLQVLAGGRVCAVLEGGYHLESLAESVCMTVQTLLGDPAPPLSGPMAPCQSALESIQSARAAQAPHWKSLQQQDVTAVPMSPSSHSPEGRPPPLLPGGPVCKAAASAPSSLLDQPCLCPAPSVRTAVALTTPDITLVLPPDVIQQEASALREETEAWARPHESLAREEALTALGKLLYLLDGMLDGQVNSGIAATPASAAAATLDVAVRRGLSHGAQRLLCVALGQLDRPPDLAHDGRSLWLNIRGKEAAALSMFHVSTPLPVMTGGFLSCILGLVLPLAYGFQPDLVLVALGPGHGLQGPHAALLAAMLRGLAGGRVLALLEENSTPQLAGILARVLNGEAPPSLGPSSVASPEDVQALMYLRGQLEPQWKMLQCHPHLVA
Nature of the test: Inhibition of human HDAC10 using RHKKAc peptide as substrate.

The target in test [2] is Histone deacetylase 1 (Homo sapiens, UniProt Q13547). Nature of the test: Inhibition of human HDAC1 using RHKKAc peptide as substrate.
Sequence of Histone deacetylase 1 (Q13547 whole entry): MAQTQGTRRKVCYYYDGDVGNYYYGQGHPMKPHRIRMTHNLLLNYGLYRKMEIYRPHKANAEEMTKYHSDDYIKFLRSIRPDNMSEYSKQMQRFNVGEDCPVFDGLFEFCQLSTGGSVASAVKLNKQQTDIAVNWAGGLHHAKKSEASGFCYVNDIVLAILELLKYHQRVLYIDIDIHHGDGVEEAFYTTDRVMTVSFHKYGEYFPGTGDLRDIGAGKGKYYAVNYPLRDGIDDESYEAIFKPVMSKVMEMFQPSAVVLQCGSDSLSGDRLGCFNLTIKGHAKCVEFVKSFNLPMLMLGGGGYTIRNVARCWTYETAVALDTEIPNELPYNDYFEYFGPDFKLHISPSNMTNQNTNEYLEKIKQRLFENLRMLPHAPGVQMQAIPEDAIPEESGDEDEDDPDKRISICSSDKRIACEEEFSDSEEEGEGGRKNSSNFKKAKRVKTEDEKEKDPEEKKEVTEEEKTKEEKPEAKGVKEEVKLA
Test [3] deals with Histone deacetylase 2 (Homo sapiens, UniProt Q92769). Nature of the test: Inhibition of human HDAC2 using RHKKAc peptide as substrate.
Sequence of Histone deacetylase 2 (Q92769 whole entry): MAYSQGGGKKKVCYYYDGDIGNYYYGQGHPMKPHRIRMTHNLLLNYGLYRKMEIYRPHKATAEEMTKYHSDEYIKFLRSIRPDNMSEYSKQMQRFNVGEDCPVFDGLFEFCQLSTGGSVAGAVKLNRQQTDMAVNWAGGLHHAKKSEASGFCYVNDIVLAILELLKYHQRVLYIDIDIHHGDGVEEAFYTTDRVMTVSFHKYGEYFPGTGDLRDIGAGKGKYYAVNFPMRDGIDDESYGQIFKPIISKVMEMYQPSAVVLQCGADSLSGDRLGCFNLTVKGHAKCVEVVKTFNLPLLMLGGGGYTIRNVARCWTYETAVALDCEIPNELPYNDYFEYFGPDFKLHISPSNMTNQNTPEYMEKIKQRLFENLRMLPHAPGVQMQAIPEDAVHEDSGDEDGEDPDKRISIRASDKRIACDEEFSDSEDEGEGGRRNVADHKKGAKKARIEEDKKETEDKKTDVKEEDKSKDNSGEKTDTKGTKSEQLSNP
Test [4] deals with Histone deacetylase 3 (Homo sapiens, UniProt O15379).
Sequence of Histone deacetylase 3 (O15379 whole entry): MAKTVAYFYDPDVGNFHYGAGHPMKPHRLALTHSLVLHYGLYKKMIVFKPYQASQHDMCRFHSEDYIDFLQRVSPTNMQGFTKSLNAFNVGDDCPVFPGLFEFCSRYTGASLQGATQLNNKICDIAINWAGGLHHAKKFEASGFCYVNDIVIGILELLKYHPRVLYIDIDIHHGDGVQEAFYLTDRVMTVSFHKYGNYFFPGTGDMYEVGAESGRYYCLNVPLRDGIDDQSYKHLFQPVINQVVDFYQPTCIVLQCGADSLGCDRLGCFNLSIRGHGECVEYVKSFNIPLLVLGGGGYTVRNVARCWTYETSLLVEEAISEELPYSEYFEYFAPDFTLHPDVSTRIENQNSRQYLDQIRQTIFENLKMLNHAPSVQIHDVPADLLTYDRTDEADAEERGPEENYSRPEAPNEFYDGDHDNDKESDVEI
Test [5] addresses T2, Histone deacetylase 8 (Homo sapiens, UniProt Q9BY41).
T2 sequence (Q9BY41 whole entry): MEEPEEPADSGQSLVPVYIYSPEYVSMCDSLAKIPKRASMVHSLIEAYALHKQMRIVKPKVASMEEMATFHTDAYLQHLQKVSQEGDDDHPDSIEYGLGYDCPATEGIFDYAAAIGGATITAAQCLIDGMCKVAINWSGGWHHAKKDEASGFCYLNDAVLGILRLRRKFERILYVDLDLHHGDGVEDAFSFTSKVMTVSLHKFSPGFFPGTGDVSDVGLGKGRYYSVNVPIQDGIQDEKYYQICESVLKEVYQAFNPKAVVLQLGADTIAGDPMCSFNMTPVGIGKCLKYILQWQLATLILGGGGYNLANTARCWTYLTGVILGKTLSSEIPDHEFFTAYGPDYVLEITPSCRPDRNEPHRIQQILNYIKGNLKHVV
Nature of the test: Inhibition of human HDAC8 using RHKAcKAc peptide as substrate.

The target in test [6] is T3, Protein deacetylase HDAC6 (Homo sapiens, UniProt Q9UBN7).
T3 sequence (Q9UBN7 whole entry): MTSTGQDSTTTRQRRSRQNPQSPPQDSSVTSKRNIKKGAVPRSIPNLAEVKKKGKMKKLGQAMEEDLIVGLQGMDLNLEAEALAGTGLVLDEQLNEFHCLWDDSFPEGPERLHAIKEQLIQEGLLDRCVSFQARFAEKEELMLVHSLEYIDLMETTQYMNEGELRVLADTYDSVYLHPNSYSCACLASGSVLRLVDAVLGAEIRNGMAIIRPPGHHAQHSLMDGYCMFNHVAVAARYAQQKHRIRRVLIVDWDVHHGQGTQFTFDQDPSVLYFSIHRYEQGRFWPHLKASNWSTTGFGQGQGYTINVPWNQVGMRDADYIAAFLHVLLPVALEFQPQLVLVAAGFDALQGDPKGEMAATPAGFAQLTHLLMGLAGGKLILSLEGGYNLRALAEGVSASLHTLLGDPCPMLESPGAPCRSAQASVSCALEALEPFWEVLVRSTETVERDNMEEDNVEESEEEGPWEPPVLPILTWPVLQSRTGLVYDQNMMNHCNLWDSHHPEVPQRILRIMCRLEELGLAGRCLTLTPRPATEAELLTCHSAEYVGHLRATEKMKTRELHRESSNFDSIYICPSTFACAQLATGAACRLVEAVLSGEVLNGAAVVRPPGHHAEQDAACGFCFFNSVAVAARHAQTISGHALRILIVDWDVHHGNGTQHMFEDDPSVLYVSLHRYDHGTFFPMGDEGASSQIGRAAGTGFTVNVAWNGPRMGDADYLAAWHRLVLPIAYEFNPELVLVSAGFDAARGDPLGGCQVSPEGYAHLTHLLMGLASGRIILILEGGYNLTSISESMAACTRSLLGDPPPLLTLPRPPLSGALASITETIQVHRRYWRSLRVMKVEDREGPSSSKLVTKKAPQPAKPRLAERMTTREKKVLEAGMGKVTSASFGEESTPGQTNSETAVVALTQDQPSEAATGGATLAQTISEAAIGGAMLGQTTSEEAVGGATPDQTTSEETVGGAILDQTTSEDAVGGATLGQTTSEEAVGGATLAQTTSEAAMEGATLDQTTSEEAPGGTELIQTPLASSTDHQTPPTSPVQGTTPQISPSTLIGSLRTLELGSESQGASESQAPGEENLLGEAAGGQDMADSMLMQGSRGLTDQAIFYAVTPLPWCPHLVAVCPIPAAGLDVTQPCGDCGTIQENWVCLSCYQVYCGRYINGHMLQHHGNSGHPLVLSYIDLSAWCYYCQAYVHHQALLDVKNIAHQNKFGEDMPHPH
Nature of the test: Inhibition of human HDAC6 using RHKKAc peptide as substrate.

For test [7], the species on record is Homo sapiens. Nature of the test: Selectivity index, ratio of IC50 for human HDAC1 to IC50 for human HDAC6.
Test [8] is filed under the species Homo sapiens. Nature of the test: Selectivity index, ratio of IC50 for human HDAC2 to IC50 for human HDAC6.
The species entered for test [9] is Homo sapiens. Nature of the test: Selectivity index, ratio of IC50 for human HDAC3 to IC50 for human HDAC6.
Test [10] is filed under the species Homo sapiens. Nature of the test: Selectivity index, ratio of IC50 for human HDAC8 to IC50 for human HDAC6.
The species named for test [11] is Homo sapiens. Nature of the test: Selectivity index, ratio of IC50 for human HDAC10 to IC50 for human HDAC6.

The term IC50 denotes the concentration needed to halve the response being measured. High values mean lower potency, low ones higher potency. For `Cc1ccc(C(=O)c2ccc3c(ccn3Cc3ccc(C(=O)NO)cc3)c2)cc1`, the IC50 in [1] is greater than 100 µM; in test [2], 3.12 µM; in test [3], 7.25 µM; in test [4], 3.91 µM; in [5], 1.49 µM; in test [6], 0.0119 µM. The Ratio IC50 in test [7] is 262; in [8] it was 609; in [9], 329; in test [10] it was 125; in [11], greater than 8400.
For `COc1cc(C(=O)c2ccc3c(ccn3S(=O)(=O)c3ccc(/C=C/C(=O)NO)cc3)c2)cc(OC)c1OC`, the IC50 in [1] is greater than 100 µM; in test [2], 8.54 µM; in test [3], 11.6 µM; in test [4], 0.996 µM; in test [5], 5.34 µM; in [6], 0.972 µM. Also, the Ratio IC50 in [7] was 8.8; in test [8], 11.9; in [9] it was 1.02; in test [10] it was 5.5; in test [11], greater than 103.
Regarding `Cc1ccc(C(=O)c2ccc3c(ccn3S(=O)(=O)c3cccc(/C=C/C(=O)NO)c3)c2)cc1`, the IC50 in test [1] was 9.1 µM; in test [2], 1.42 µM; in test [3], 7.27 µM; in [4], 0.891 µM; in [5], 4.48 µM; in test [6], 2.75 µM. Also, the Ratio IC50 was found to be 0.5 in test [7]; 2.6 in test [8]; 0.3 in [9]; 1.6 in test [10]; 3.3 in test [11].
Turning to `COc1ccc(C(=O)c2ccc3c(ccn3S(=O)(=O)c3cccc(/C=C/C(=O)NO)c3)c2)cc1OC`, the IC50 in test [1] is 8.24 µM; in test [2], 0.877 µM; in [3], 2.14 µM; in [4], 0.861 µM; in test [5], 1.42 µM; in test [6] it was 1.18 µM. In addition, the Ratio IC50 is 0.7 in test [7]; 1.8 in test [8]; 0.7 in test [9]; 1.2 in test [10]; 6.9 in test [11].
On to `COc1ccc(C(=O)c2ccc3c(ccn3S(=O)(=O)c3cccc(/C=C/C(=O)NO)c3)c2)cc1`, for which the 50% inhibitory concentration (IC50) worked out at 5.89 µM in test [1]; 1.46 µM in [2]; 0.424 µM in test [3]; 0.232 µM in test [4]; 0.812 µM in test [5]; 0.751 µM in [6]. Moreover, the Ratio IC50 was 1.7 in test [7]; 0.6 in test [8]; 0.3 in [9]; 1.1 in test [10]; 7.8 in test [11].
As to `O=C(/C=C/c1cccc(S(=O)(=O)n2ccc3cc(C(=O)c4ccc(F)cc4)ccc32)c1)NO`, the half-maximal inhibitory concentration (IC50) was determined as 5.24 µM in test [1]; 0.23 µM in [2]; 1.8 µM in test [3]; 0.0596 µM in test [4]; 2.75 µM in test [5]; 1.42 µM in test [6]. Moreover, the Ratio IC50 came out at 0.16 in [7]; 1.3 in [8]; 0.04 in test [9]; 1.9 in test [10]; 3.7 in [11].
With `COc1ccc(C(=O)c2ccc3c(ccn3Cc3ccc(/C=C/C(=O)NO)cc3)c2)cc1`, the half-maximal inhibitory concentration (IC50) is 7.05 µM in [1]; 1.44 µM in [2]; 1.95 µM in test [3]; 2.05 µM in test [4]; 2.81 µM in test [5]; 0.108 µM in test [6]. The Ratio IC50 in test [7] stood at 13.3; in [8] it was 18.1; in test [9], 19; in [10], 26; in test [11] it was 65.3.
For `COc1ccc(C(=O)c2ccc3c(ccn3S(=O)(=O)c3ccc(/C=C/C(=O)NO)cc3)c2)cc1`, the 50% inhibitory concentration (IC50) in test [1] is greater than 100 µM; in [2], 7.16 µM; in test [3] it was greater than 100 µM; in test [4], 2.56 µM; in [5] it was 10 µM; in test [6], 0.848 µM. For the same compound, the Ratio IC50 in test [7] is 8.4; in test [8] it was greater than 118; in test [9] it was 3.01; in [10], 11.8; in test [11], greater than 118.
For the compound `COc1cc(C(=O)c2ccc3c(ccn3S(=O)(=O)c3cccc(/C=C/C(=O)NO)c3)c2)cc(OC)c1OC`, the IC50 was greater than 100 µM in [1]; 1.32 µM in test [2]; 1.77 µM in test [3]; greater than 100 µM in [4]; 1.26 µM in [5]; 0.562 µM in test [6]. For the same compound, the Ratio IC50 in test [7] was 2.3; in test [8], 3.1; in test [9] it was greater than 178; in test [10], 2.2; in test [11], greater than 178.
`COc1cccc(C(=O)c2ccc3c(ccn3Cc3ccc(C(=O)NO)cc3)c2)c1`: the IC50 in test [1] was 47.9 µM; in test [2] it was 3.79 µM; in [3], 5.14 µM; in test [4], 5.09 µM; in test [5], 1.12 µM; in [6], 0.0164 µM. Moreover, the Ratio IC50 was determined as 231 in test [7]; 313 in test [8]; 310 in test [9]; 68.3 in [10]; 2920 in test [11].
`COc1cc(C(=O)c2ccc3c(ccn3Cc3ccc(C(=O)NO)cc3)c2)cc(OC)c1OC` came in with an IC50 in [6] of 1.54 µM.
Take `COc1cc(C(=O)c2ccc3c(ccn3Cc3ccc(/C=C/C(=O)NO)cc3)c2)cc(OC)c1OC`: the IC50 stood at 3.48 µM in [2], 5.74 µM in test [3], 2.17 µM in test [5] and 0.143 µM in test [6]. Also, the Ratio IC50 is 24.3 in [7], 40.1 in test [8] and 15.2 in test [10].
